# Source: US20110287953A1, “METHOD FOR DISCOVERING POTENTIAL DRUGS” (priority 2010, published 2011)
# pIC50: −log10 of the molar value.
# Tests used:
# [1] = tested on: HCC cell lines, Mahlavu, PLC5, HepG2, and Huh7; experiment: MTT cell viability test in HCC cell lines
# Experimental: (§1) The HCC cell lines, Mahlavu, PLC5, HepG2, and Huh7, were cultured in Dulbecco's Modified Eagle Medium (DMEM; Seromed, Berlin, Germany) supplemented with 10% heat-inactivated fetal bovine serum, 100 μg/ml streptomycin, 100 μg/ml penicillin, and 2 mM L-glutamine in a humidified atmosphere containing 5% CO2 at 37° C. […] The cells were exposed to different concentrations of the small molecules for 72 hours. Control cells were incubated in the absence of small molecules. Afterwards, the cells were incubated with medium containing MTT for 2 hours. […] For the clonogenic assay, Huh7 cells were seeded out in appropriate dilutions in a 6-well plate and treated with selected small molecules at various concentrations for 15 days. Colonies were fixed with glutaraldehyde (6.0% v/v), stained with crystal violet (0.5% w/v), and counted.
# Huh7 cells = experiment: Clonogenic assay; type: cell-based; settings: for Clonogenic assay / inhibition at 10 µM: colony number at 10 μM; for inhibition at 10 µM: Homo sapiens, Huh-7, 360 h
# Experimental: The HCC cell lines, Mahlavu, PLC5, HepG2, and Huh7, were cultured in Dulbecco's Modified Eagle Medium (DMEM; Seromed, Berlin, Germany) supplemented with 10% heat-inactivated fetal bovine serum, 100 μg/ml streptomycin, 100 μg/ml penicillin, and 2 mM L-glutamine in a humidified atmosphere containing 5% CO2 at 37° C. The viability of the exposed cells was determined using the MTT cell viability assay kit (Sigma-Aldrich, St. Louis, USA), according to the manufacturer's instructions. […] The cells were exposed to different concentrations of the small molecules for 72 hours. Control cells were incubated in the absence of small molecules. Afterwards, the cells were incubated with medium containing MTT for 2 hours. The optical density at 450 nm was measured using a microplate reader (Spectral Max250). For the clonogenic assay, Huh7 cells were seeded out in appropriate dilutions in a 6-well plate and treated with selected small molecules at various concentrations for 15 days. Colonies were fixed with glutaraldehyde (6.0% v/v), stained with crystal violet (0.5% w/v), and counted.
# HCC cell lines = experiment: Drug efficacy label of top 10 CMap drugs (MTT or clonogenic); type: cell-based; settings: Table 2-3; labels (1) and (4); gene set in which the drug ranked top 10;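 also: label 1 means effective by MTT or clonogenic assay and 4 means ineffective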
# Experimental: as §1
# [2] = 72 h, Table 3-1, HCC cell lines, MTT
# [3] = Table 3-1, HCC cell lines, 72 hours, MTT
# [4] = 72 h, Table 2-2, HCC cell lines, MTT
structure (smiles),measurement,setting,value
C=C(NC(=O)C(=C)NC(=O)c1csc(C2=N[C@@H]3c4csc(n4)[C@H]4NC(=O)c5csc(n5)[C@H]([C@](C)(O)[C@@H](C)O)NC(=O)[C@H]5CSC(=N5)/C(=C/C)NC(=O)[C@H]([C@@H](C)O)NC(=O)c5csc(n5)[C@]3(CC2)NC(=O)[C@H](C)NC(=O)C(=C)NC(=O)[C@H](C)NC(=O)[C@H]([C@@H](C)CC)N[C@@H]2C=Cc3c([C@H](C)O)cc(nc3[C@H]2O)C(=O)O[C@@H]4C)n1)C(N)=O [thiostrepton],pIC50,[1]; [2],5.30 to 6.00
COc1cnc(NS(=O)(=O)c2ccc(N)cc2)nc1 [sulfametoxydiazine],pIC50,[1]; [2],< 5.00
CC1=CC(=O)C2=C(C)CC[C@@H]3[C@H](OC(=O)[C@H]3C)[C@@H]12 [leucomisine],Clonogenic assay,"Huh7 cells; Table 3-1, 15 days",Ineffective
same,pIC50,[1]; [3],< 5.00
CCCNCC(O)COc1ccccc1C(=O)CCc1ccccc1 (stereo not shown) [propafenone],inhibition at 10 µM,"Huh7 cells; Table 3-1, 15 days",> 50%
same,pIC50,[1]; [2],< 5.00
Cc1cc2cc3c(C)cc(=O)oc3c(C)c2o1 [trioxysalen],inhibition at 10 µM,"Huh7 cells; Table 3-1, 15 days",> 50%
same,pIC50,[1]; [2],< 5.00
CC[C@@H](CO)NC(=O)[C@@H]1C=C2c3cccc4[nH]cc(c34)C[C@H]2N(C)C1 [methylergometrine],drug efficacy label,HCC cell lines,methylergometrine (4)
same,Clonogenic assay,"Huh7 cells; Table 3-1, 15 days",Ineffective
same,pIC50,[1]; 72 h,< 5.00
CC(COc1ccccc1)N(CCCl)Cc1ccccc1 (stereo not shown) [phenoxybenzamine],drug efficacy label,HCC cell lines,(1) and phenoxybenzamine (1)
same,growth / survival of Huh7 cells,Huh7 cells,could inhibit the survival of Huh7 cells
same,inhibition at 10 µM,"Huh7 cells; Table 3-1, 15 days",> 50%
same,Clonogenic assay,"Huh7 cells; Table 2-2, 15 days",Effective (Effectiveness in clonogenic assay is defined as reducing more than 50% colony number at 10 μM)
same,pIC50,[1]; 72 h,< 5.00
same,pIC50,[1]; [3],< 5.00
CC[C@@]1(O)C(=O)OCc2c1cc1n(c2=O)Cc2cc3ccccc3nc2-1 [camptothecin],pIC50,[1]; [2],6.00 to 7.00
C[C@]12CC[C@@H]3c4ccc(O)cc4CC[C@H]3[C@@H]1C[C@@H](O)[C@@H]2O [estriol],pIC50,[1]; [2],< 5.00
Clc1ccc(C(OCCN2CCCCC2)c2ccccc2)cc1 (stereo not shown) [cloperastine],drug efficacy label,HCC cell lines,cloperastine (4)
same,inhibition at 10 µM,"Huh7 cells; Table 3-1, 15 days",> 50%
same,pIC50,[1]; [2],< 5.00
O=c1cc(-c2ccccc2)oc2cc(O)cc(O)c12 [chrysin],pIC50,[1]; [2],< 5.00
CCCCC(CC)CNC(=N)NC(=N)NCCCCCCNC(=N)NC(=N)NCC(CC)CCCC (stereo not shown) [alexidine],pIC50,[1]; [2],6.00 to 7.00
Oc1c(I)cc(Cl)c2cccnc12 [clioquinol],pIC50,[1]; [2],5.00 to 5.30
Cc1ccsc1/C=C/C1=NCCCN1C [morantel],pIC50,[1]; 72 h,< 5.00
CC(C)COCC(CN(Cc1ccccc1)c1ccccc1)N1CCCC1 (stereo not shown) [bepridil],pIC50,[1]; [2],5.00 to 5.30
O=C(O)c1ccccc1C(=O)Nc1ccc(S(=O)(=O)Nc2nccs2)cc1 [phthalylsulfathiazole],Clonogenic assay,"Huh7 cells; Table 3-1, 15 days",Ineffective
same,pIC50,[1]; [2],< 5.00
CC[C@H]1OC(=O)[C@H](C)[C@@H](O[C@H]2C[C@@](C)(OC)[C@@H](O)[C@H](C)O2)[C@H](C)[C@@H](O[C@@H]2O[C@H](C)C[C@H](N(C)C)[C@H]2O)[C@](C)(O)C[C@@H](C)/C(=N\OCOCCOC)[C@H](C)[C@@H](O)[C@]1(C)O [roxithromycin],pIC50,[1]; [2],< 5.00
CCN(CC)CCOC(=O)c1ccc(N)cc1 [procaine],pIC50,[1]; [2],< 5.00
CC(C(=O)O)c1cccc(Oc2ccccc2)c1 (stereo not shown) [fenoprofen],pIC50,[1]; [2],< 5.00
CC[C@H]1CN2CCc3cc(OC)c(OC)cc3[C@@H]2C[C@@H]1C[C@H]1NCCc2cc(OC)c(OC)cc21 [emetine],pIC50,[1]; [2],6.00 to 7.00
CC[C@H](c1ccc(O)cc1)[C@@H](CC)c1ccc(O)cc1 [hexestrol],drug efficacy label,HCC cell lines,hexestrol (4)
same,Clonogenic assay,"Huh7 cells; Table 3-1, 15 days",Ineffective
same,pIC50,[1]; [2],< 5.00
O=c1cc(-c2ccc(O)cc2)oc2cc(O)cc(O)c12 [apigenin],drug efficacy label,HCC cell lines,apigenin (1)
same,growth / survival of Huh7 cells,Huh7 cells,inhibited the growth of Huh7 cells
same,inhibition at 10 µM,"Huh7 cells; Table 3-1, 15 days",> 50%
same,Clonogenic assay,"Huh7 cells; Table 2-2, 15 days",Effective (Effectiveness in clonogenic assay is defined as reducing more than 50% colony number at 10 μM)
same,pIC50,[1]; [4],< 5.00
same,pIC50,[1]; [2],< 5.00
Cc1cc2c(cc1S(N)(=O)=O)S(=O)(=O)CCC2 [meticrane],Clonogenic assay,"Huh7 cells; Table 3-1, 15 days",Ineffective
same,pIC50,[1]; [2],< 5.00
Cc1cc(C2CCCCC2)n(O)c(=O)c1 [ciclopirox],pIC50,[1]; [2],5.00 to 5.30
Nc1ncn([C@@H]2O[C@H](CO)[C@@H](O)[C@H]2O)c(=O)n1 [azacitidine],inhibition at 10 µM,"Huh7 cells; Table 3-1, 15 days",> 50%
same,pIC50,[1]; [2],< 5.00
OCCN(CCO)c1nc(N2CCCCC2)c2nc(N(CCO)CCO)nc(N3CCCCC3)c2n1 [dipyridamole],inhibition at 10 µM,"Huh7 cells; Table 3-1, 15 days",> 50%
same,Clonogenic assay,"Huh7 cells; Table 2-2, 15 days",Effective (Effectiveness in clonogenic assay is defined as reducing more than 50% colony number at 10 μM)
same,pIC50,[1]; [4],< 5.00
same,pIC50,[1]; [2],< 5.00
CCOc1cc(CC(=O)N[C@@H](CC(C)C)c2ccccc2N2CCCCC2)ccc1C(=O)O [Repaglinide],drug efficacy label,HCC cell lines,repaglinide (4)
same,Clonogenic assay,"Huh7 cells; Table 2-2, 15 days",Ineffective
same,pIC50,[1]; [4],< 5.00
OC(c1cc(C(F)(F)F)nc2c(C(F)(F)F)cccc12)C1CCCCN1 (stereo not shown) [mefloquine],pIC50,[1]; [2],5.30 to 6.00
